Measurements from article PMC8881077 (Journal of Enzyme Inhibition and Medicinal Chemistry, 2022).
Read-outs that look alike come from different tables or passages of the source.

Assays:
[1] = Trolox as standard
Experimental: The skeleton compounds naringenin and apigenin were also evaluated for comparison purposes, and vitamin E analogue Trolox was used as a standard.
The antioxidant potency of target compounds was tested using an oxygen radical absorbance capacity fluorescein (ORAC-FL) assay.

ratAChE = target: T1, ratAChE (Rattus norvegicus, UniProt P37136); test: biochemical; details: for SI: Selectivity Index = IC50 (BuChE)/IC50 (AChE), rat enzymes; for IC50: from 5% rat cortex homogenate
T1 construct: AChE from 5% rat cortex homogenate or human erythrocytes (Sigma Co.); from tissue; host or cells: 5% rat cortex homogenate
T1 sequence (P37136 32-614): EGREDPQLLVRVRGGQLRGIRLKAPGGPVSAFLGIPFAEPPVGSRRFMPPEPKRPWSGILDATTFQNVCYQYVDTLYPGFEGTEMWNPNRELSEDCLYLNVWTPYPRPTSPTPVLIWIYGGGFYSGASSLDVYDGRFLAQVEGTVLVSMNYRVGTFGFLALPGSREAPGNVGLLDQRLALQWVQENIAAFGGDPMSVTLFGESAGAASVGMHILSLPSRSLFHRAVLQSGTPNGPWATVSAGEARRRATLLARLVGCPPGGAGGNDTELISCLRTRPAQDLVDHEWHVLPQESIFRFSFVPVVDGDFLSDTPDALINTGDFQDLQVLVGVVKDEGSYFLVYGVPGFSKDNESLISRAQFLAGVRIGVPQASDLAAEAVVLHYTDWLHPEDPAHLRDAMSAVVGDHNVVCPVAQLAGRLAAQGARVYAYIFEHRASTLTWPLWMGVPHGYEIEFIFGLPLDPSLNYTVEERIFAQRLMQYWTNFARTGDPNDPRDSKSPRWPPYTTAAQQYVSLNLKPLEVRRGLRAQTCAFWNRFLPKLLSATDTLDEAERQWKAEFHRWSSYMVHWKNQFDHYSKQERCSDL
Experimental: (§1) The AChE and BuChE inhibitory activities of the synthesised compounds were evaluated using the Ellman assay with slight modification. AChE from 5% rat cortex homogenate or human erythrocytes (Sigma Co.). BuChE from rat serum or human serum (Sigma Co.).

ratBuChE = target: T2, ratBuChE (Rattus norvegicus, UniProt Q9JKC1); test: ratBuChE inhibition, modified Ellman's method; format: biochemical
T2 construct: BuChE from rat serum or human serum (Sigma Co.); from tissue; host or cells: rat serum
T2 sequence (Q9JKC1 24-597): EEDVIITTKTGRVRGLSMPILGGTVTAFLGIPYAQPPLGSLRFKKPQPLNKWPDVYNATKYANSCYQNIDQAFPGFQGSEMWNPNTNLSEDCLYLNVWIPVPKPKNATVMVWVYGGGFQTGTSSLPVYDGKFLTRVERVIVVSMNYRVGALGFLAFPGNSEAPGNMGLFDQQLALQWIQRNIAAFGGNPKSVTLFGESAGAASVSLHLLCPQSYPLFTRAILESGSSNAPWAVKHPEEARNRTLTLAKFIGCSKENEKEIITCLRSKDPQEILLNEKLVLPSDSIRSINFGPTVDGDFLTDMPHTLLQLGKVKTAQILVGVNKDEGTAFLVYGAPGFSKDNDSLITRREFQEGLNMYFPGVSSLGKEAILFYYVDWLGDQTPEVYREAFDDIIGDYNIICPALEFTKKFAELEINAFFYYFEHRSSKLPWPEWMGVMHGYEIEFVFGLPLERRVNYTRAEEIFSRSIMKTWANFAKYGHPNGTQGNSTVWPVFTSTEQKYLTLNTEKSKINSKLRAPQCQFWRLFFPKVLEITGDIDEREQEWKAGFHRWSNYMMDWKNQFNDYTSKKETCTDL
Experimental: as §1

PC12 cells = test: Neuroprotective effect on H2O2-induced PC12 cells injury, MTT assay; format: cell-based; details: compound 100 μM, 100 μM H2O2, PC12 cells

Molecule | ORAC [1] | SI (ratAChE) | IC50 (ratAChE; read-out: IC50 ± SD ratAChE) | IC50 (ratBuChE) | IC50 (ratAChE; IC50 ± SD ratAChE) | cell viability (PC12 cells)
O=c1cc(-c2ccc(OCCCN3CCC(Cc4ccccc4)CC3)cc2)oc2cc(OCCCN3CCC(Cc4ccccc4)CC3)cc(O)c12 [Compound 10c, 7–(3-(4-benzylpiperidin-1-yl)propoxy)-2–(4-(3–(4-benzylpiperidin-1-yl)propoxy)phenyl)-5-hydroxy-4H-chromen-4-one] | 1.2 ± 0.03 μM of Trolox equivalent/μM of tested compound | 2.5 | 5.5 ± 0.17 µM | 13.6 ± 0.67 µM |  | 
O=c1cc(-c2ccc(OCCCN3CCC(c4ccccc4)CC3)cc2)oc2cc(OCCCN3CCC(c4ccccc4)CC3)cc(O)c12 [Compound 10d, 5-hydroxy-7–(3-(4-phenylpiperidin-1-yl)propoxy)-2–(4-(3–(4-phenylpiperidin-1-yl)propoxy)phenyl)-4H-chromen-4-one] | 1.1 ± 0.02 μM of Trolox equivalent/μM of tested compound | 2.4 | 6.4 ± 0.22 µM | 15.1 ± 0.49 µM |  | 
O=c1cc(-c2ccc(OCCCN3CCC(CCCc4ccccc4)CC3)cc2)oc2cc(OCCCN3CCC(CCCc4ccccc4)CC3)cc(O)c12 [Compound 10e, 5-hydroxy-7–(3-(4–(3-phenylpropyl)piperidin-1-yl)propoxy)-2–(4-(3–(4–(3-phenylpropyl)piperidin-1-yl)propoxy)phenyl)-4H-chromen-4-one] | 1.1 ± 0.02 μM of Trolox equivalent/μM of tested compound |  | 7.9 ± 0.26 µM | 13.8 ± 0.43 µM |  | 
CC1CC(C)CN(CCCOc2ccc(-c3cc(=O)c4c(O)cc(OCCCN5CC(C)CC(C)C5)cc4o3)cc2)C1 (stereo not shown) [Compound 10f, 7–(3-(3,5-dimethylpiperidin-1-yl)propoxy)-2–(4-(3–(3,5-dimethylpiperidin-1-yl)propoxy)phenyl)-5-hydroxy-4H-chromen-4-one] | 1.0 ± 0.04 μM of Trolox equivalent/μM of tested compound | 1.9 | 8.6 ± 0.33 µM | 16.7 ± 0.52 µM |  | 
O=c1cc(-c2ccc(OCCCCN3CCc4ccccc4C3)cc2)oc2cc(OCCCCN3CCc4ccccc4C3)cc(O)c12 [Compound 10g, 7–(4-(3,4-dihydroisoquinolin-2(1H)-yl)butoxy)-2–(4-(4–(3,4-dihydroisoquinolin-2(1H)-yl)butoxy)phenyl)-5-hydroxy-4H-chromen-4-one] | 1.2 ± 0.03 μM of Trolox equivalent/μM of tested compound | 3.8 | 4.6 ± 0.21 µM | 17.4 ± 0.35 µM |  | 
O=c1cc(-c2ccc(OCCCCN3CCN(Cc4ccccc4)CC3)cc2)oc2cc(OCCCCN3CCN(Cc4ccccc4)CC3)cc(O)c12 [Compound 10i, 7–(4-(4-Benzylpiperazin-1-yl)butoxy)-2–(4–(4-(4-benzylpiperazin-1-yl)butoxy)phenyl)-5-hydroxy-4H-chromen-4-one] | 1.5 ± 0.02 μM of Trolox equivalent/μM of tested compound |  | 6.9 ± 0.14 µM | 10.3 ± 0.19 µM |  | 
O=c1cc(-c2ccc(OCCCCN3CCC(Cc4ccccc4)CC3)cc2)oc2cc(OCCCCN3CCC(Cc4ccccc4)CC3)cc(O)c12 [Compound 10j, 7–(4-(4-Benzylpiperidin-1-yl)butoxy)-2–(4–(4-(4-benzylpiperidin-1-yl)butoxy)phenyl)-5-hydroxy-4H-chromen-4-one] | 1.2 ± 0.03 μM of Trolox equivalent/μM of tested compound | 8.7 | 1.8 ± 0.04 µM | 15.7 ± 0.24 µM |  | 
O=c1cc(-c2ccc(OCCCCCN3CCC(Cc4ccccc4)CC3)cc2)oc2cc(OCCCCCN3CCC(Cc4ccccc4)CC3)cc(O)c12 [Compound 10m, 7-((5–(4-benzylpiperidin-1-yl)pentyl)oxy)-2–(4-((5–(4-benzylpiperidin-1-yl)pentyl)oxy)phenyl)-5-hydroxy-4H-chromen-4-one] | 1.2 ± 0.02 μM of Trolox equivalent/μM of tested compound | 12.8 | 1.3 ± 0.08 µM | 16.6 ± 0.27 µM |  | 
O=c1cc(-c2ccc(OCCCCCN3CCC(c4ccccc4)CC3)cc2)oc2cc(OCCCCCN3CCC(c4ccccc4)CC3)cc(O)c12 [Compound 10n, 5-hydroxy-7-((5–(4-phenylpiperidin-1-yl)pentyl)oxy)-2–(4-((5–(4-phenylpiperidin-1-yl)pentyl)oxy)phenyl)-4H-chromen-4-one] | 1.1 ± 0.04 μM of Trolox equivalent/μM of tested compound | 4.9 | 3.6 ± 0.11 µM | 17.9 ± 0.46 µM |  | 
O=c1cc(-c2ccc(OCCCCCN3CCC(CCCc4ccccc4)CC3)cc2)oc2cc(OCCCCCN3CCC(CCCc4ccccc4)CC3)cc(O)c12 [Compound 10o, 5-hydroxy-7-((5–(4-(3-phenylpropyl)piperidin-1-yl)pentyl)oxy)-2–(4-((5–(4–(3-phenylpropyl)piperidin-1-yl)pentyl)oxy)phenyl)-4H-chromen-4-one] | 1.2 ± 0.03 μM of Trolox equivalent/μM of tested compound | 3.9 | 4.1 ± 0.63 µM | 16.1 ± 0.25 µM |  | 
CC1CC(C)CN(CCCCCOc2ccc(-c3cc(=O)c4c(O)cc(OCCCCCN5CC(C)CC(C)C5)cc4o3)cc2)C1 (stereo not shown) [Compound 10p, 7-((5–(3,5-dimethylpiperidin-1-yl)pentyl)oxy)-2–(4-((5–(3,5-dimethylpiperidin-1-yl)pentyl)oxy)phenyl)-5-hydroxy-4H-chromen-4-one] | 1.1 ± 0.02 μM of Trolox equivalent/μM of tested compound | 2.2 | 6.2 ± 0.54 µM | 13.8 ± 0.37 µM |  | 
O=c1cc(-c2ccc(OCCCCCCN3CCc4ccccc4C3)cc2)oc2cc(OCCCCCCN3CCc4ccccc4C3)cc(O)c12 [Compound 10q, 7-((6–(3,4-dihydroisoquinolin-2(1H)-yl)hexyl)oxy)-2–(4-((6–(3,4-dihydroisoquinolin-2(1H)-yl)hexyl)oxy)phenyl)-5-hydroxy-4H-chromen-4-one] | 1.0 ± 0.02 μM of Trolox equivalent/μM of tested compound | 2.9 | 4.2 ± 0.15 µM | 12.2 ± 0.28 µM |  | 
CCN(CCCCCCOc1ccc(-c2cc(=O)c3c(O)cc(OCCCCCCN(CC)Cc4ccccc4)cc3o2)cc1)Cc1ccccc1 [Compound 10r, 7-((6-(benzyl(ethyl)amino)hexyl)oxy)-2–(4-((6-(benzyl(ethyl)amino)hexyl)oxy)phenyl)-5-hydroxy-4H-chromen-4-one] | 1.2 ± 0.04 μM of Trolox equivalent/μM of tested compound | 8.3 | 1.7 ± 0.21 µM | 14.1 ± 0.22 µM |  | 
O=c1cc(-c2ccc(OCCCCCCN3CCC(Cc4ccccc4)CC3)cc2)oc2cc(OCCCCCCN3CCC(Cc4ccccc4)CC3)cc(O)c12 [Compound 10s, 7-((6–(4-benzylpiperidin-1-yl)hexyl)oxy)-2–(4-((6–(4-benzylpiperidin-1-yl)hexyl)oxy)phenyl)-5-hydroxy-4H-chromen-4-one] | 1.1 ± 0.03 μM of Trolox equivalent/μM of tested compound | 6.5 | 2.6 ± 0.33 µM | 16.9 ± 0.54 µM |  | 
O=c1cc(-c2ccc(OCCCCCCN3CCC(c4ccccc4)CC3)cc2)oc2cc(OCCCCCCN3CCC(c4ccccc4)CC3)cc(O)c12 [Compound 10t, 5-hydroxy-7-((6–(4-phenylpiperidin-1-yl)hexyl)oxy)-2–(4-((6–(4-phenylpiperidin-1-yl)hexyl)oxy)phenyl)-4H-chromen-4-one] | 1.0 ± 0.02 μM of Trolox equivalent/μM of tested compound | 3.3 | 5.9 ± 0.37 µM | 19.3 ± 0.67 µM |  | 
O=c1cc(-c2ccc(OCCCCCCN3CCC(CCCc4ccccc4)CC3)cc2)oc2cc(OCCCCCCN3CCC(CCCc4ccccc4)CC3)cc(O)c12 [Compound 10u, 5-hydroxy-7-((6–(4-(3-phenylpropyl)piperidin-1-yl)hexyl)oxy)-2–(4-((6–(4–(3-phenylpropyl)piperidin-1-yl)hexyl)oxy)phenyl)-4H-chromen-4-one] | 1.2 ± 0.03 μM of Trolox equivalent/μM of tested compound | 2.7 | 6.3 ± 0.21 µM | 17.2 ± 0.45 µM |  | 
CC1CC(C)CN(CCCCCCOc2ccc(-c3cc(=O)c4c(O)cc(OCCCCCCN5CC(C)CC(C)C5)cc4o3)cc2)C1 (stereo not shown) [Compound 10v, 7-((6–(3,5-dimethylpiperidin-1-yl)hexyl)oxy)-2–(4-((6–(3,5-dimethylpiperidin-1-yl)hexyl)oxy)phenyl)-5-hydroxy-4H-chromen-4-one] | 1.3 ± 0.03 μM of Trolox equivalent/μM of tested compound | 1.8 | 8.1 ± 0.49 µM | 14.8 ± 0.29 µM |  | 
O=c1cc(-c2ccc(O)cc2)oc2cc(O)cc(O)c12 [apigenin, reference compound] | 5.6 ± 0.52 μM of Trolox equivalent/μM of tested compound |  |  | > 50 µM | > 50 µM | 
Vitamine E [reference compound] |  |  |  |  |  | 67.6%
